{
  "source": "paper PMC9477730",
  "about": "“Structures and mechanism of the plant PIN-FORMED auxin transporter” (Nature, 2022)",
  "key": {"PIN8 [1]": {"molecular_target": "T1, PIN8 (Arabidopsis thaliana, UniProt Q9LFP6)", "T1 construct": "full-length, tag-free; model residues 1–164 and 206–367, homodimer", "T1 sequence (Q9LFP6 1-367)": "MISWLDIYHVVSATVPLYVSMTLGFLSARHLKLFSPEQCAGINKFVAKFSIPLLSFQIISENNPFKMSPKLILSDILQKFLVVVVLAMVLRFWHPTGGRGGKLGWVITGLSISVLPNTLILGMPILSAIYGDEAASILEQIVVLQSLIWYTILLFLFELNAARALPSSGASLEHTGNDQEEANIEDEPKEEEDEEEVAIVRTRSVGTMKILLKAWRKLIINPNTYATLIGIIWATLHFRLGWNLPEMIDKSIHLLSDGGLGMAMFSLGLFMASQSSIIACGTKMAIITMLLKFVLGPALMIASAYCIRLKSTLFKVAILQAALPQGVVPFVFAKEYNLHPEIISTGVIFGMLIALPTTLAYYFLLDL", "assay": "cryo-EM structure at […] Å (inward-open); Ki from SSM electrophysiology on proteoliposomes", "type": "biochemical"}, "PIN8 [2]": {"molecular_target": "T1, PIN8", "assay": "cryo-EM structure at […] Å (outward-open); apparent Kd by SSM electrophysiology competition with NPA binding current"}, "[3]": {"molecular_target": "the molecule itself", "assay": "cryo-EM structure; purified tag-free PIN8 reconstituted in peptidisc; apo (2.9 Å), with 15 mM IAA (3.2 Å) and with 2 mM NPA (3.4 Å); C2 symmetry imposed, parallel C1 refinement showed no differences between the two monomers"}},
  "data": [
    {"molecule": "O=C(O)c1ccccc1C(=O)Nc1cccc2ccccc12", "note": "[NPA, naphthylphthalamic acid]", "values": [
      {"measurement": "Ki", "setting": "PIN8 [1]", "result": 1.9, "unit": "µM"}
    ]},
    {"molecule": "O=C(O)Cc1c[nH]c2ccccc12", "note": "[IAA, Indole-3-acetic acid]", "values": [
      {"measurement": "Kd", "setting": "PIN8 [2]", "result": 39.9, "unit": "µM"}
    ]},
    {"molecule": "Arabidopsis thaliana PIN8 (PIN-FORMED 8 auxin transporter) (natural protein, UniProt Q9LFP6 1-367, looked up, PIN8, Arabidopsis thaliana, UniProt Q9LFP6; the PIN8 gene cloned in a p423_GAL1-based plasmid; final models include residues 1-164 and 206-367 of 367 residues total; the cytosolic loop 165-205 is in the protein but not visible in the maps; also called AtPIN8; apo-PIN8; source: S. cerevisiae strain DSY-5, purified (Ni-NTA, TEV cleavage, SEC); in peptidisc or in LMNG detergent) MISWLDIYHVVSATVPLYVSMTLGFLSARHLKLFSPEQCAGINKFVAKFSIPLLSFQIISENNPFKMSPKLILSDILQKFLVVVVLAMVLRFWHPTGGRGGKLGWVITGLSISVLPNTLILGMPILSAIYGDEAASILEQIVVLQSLIWYTILLFLFELNAARALPSSGASLEHTGNDQEEANIEDEPKEEEDEEEVAIVRTRSVGTMKILLKAWRKLIINPNTYATLIGIIWATLHFRLGWNLPEMIDKSIHLLSDGGLGMAMFSLGLFMASQSSIIACGTKMAIITMLLKFVLGPALMIASAYCIRLKSTLFKVAILQAALPQGVVPFVFAKEYNLHPEIISTGVIFGMLIALPTTLAYYFLLDL", "values": [
      {"measurement": "stoichiometry N", "setting": "[3]", "result": 2}
    ]}
  ]
}
